Active and inactive are the calls of the source. No cut-off for these calls is given here.
Assays:
MIA PaCa-2 [1] = assay: Upregulation of DDIT3 gene expression in human MIAPaCa2 cells at cytotoxic concentration after 24 hrs by qPCR analysis; type: functional, cell-based
MIA PaCa-2 [2] = assay: Downregulation of PPP1R15A gene expression in human MIAPaCa2 cells at subcytotoxic concentration after 24 hrs by qPCR analysis; type: functional, cell-based
MIA PaCa-2 [3] = assay: Downregulation of TP73 gene expression in human MIAPaCa2 cells at 160 nM after 24 hrs by qPCR analysis; type: functional, cell-based
MIA PaCa-2 [4] = assay: Downregulation of GADD45A gene expression in human MIAPaCa2 cells at subcytotoxic concentration after 24 hrs by qPCR analysis; type: functional, cell-based
MIA PaCa-2 [5] = assay: Downregulation of SLX4 gene expression in human MIAPaCa2 cells at 20 to 80 nM after 24 hrs by qPCR analysis relative to solvent-treated control; type: functional
MIA PaCa-2 [6] = assay: Downregulation of […] gene expression in human MIAPaCa2 cells at 20 to 80 nM after 24 hrs by qPCR analysis relative to solvent-treated control; type: functional
MIA PaCa-2 [7] = assay: Downregulation of CDK7 gene expression in human MIAPaCa2 cells at 20 to 160 nM after 24 hrs by qPCR analysis relative to solvent-treated control; type: functional, cell-based
MIA PaCa-2 [8] = assay: Upregulation of PPP1R15A gene expression in human MIAPaCa2 cells at cytotoxic concentration after 24 hrs by qPCR analysis; type: functional, cell-based
MIA PaCa-2 [9] = assay: Downregulation of CDKN1A gene expression in human MIAPaCa2 cells at subcytotoxic concentration after 24 hrs by qPCR analysis; type: functional, cell-based
unidentified [10] = assay: Stabilization of duplex DNA T-loop (unknown origin) 5'-FAM-dTATAGCTATA-HEG-TATAGCTATA-TAMRA-3' assessed as melting temperature at 1 uM by FRET assay
MIA PaCa-2 [11] = assay: Upregulation of CDKN1A gene expression in human MIAPaCa2 cells at cytotoxic concentration after 24 hrs by qPCR analysis; type: functional, cell-based
MIA PaCa-2 [12] = assay: Induction of senescence in human MIAPaCa2 cells at 3.3 to 6.6 nM after 7 days by beta-galactosidase assay relative to vehicle-treated control; type: functional
MIA PaCa-2 [13] = assay: Cytotoxicity against human MIAPaCa2 cells assessed as growth inhibition at 5 to 40 nM after 144 hrs by microscopic analysis; type: functional, cell-based
MIA PaCa-2 [14] = assay: Downregulation of UNG gene expression in human MIAPaCa2 cells at 160 nM after 24 hrs by qPCR analysis; type: functional, cell-based
MIA PaCa-2 [15] = assay: Upregulation of NHP2 gene expression in human MIAPaCa2 cells at 20 to 80 nM after 24 hrs by qPCR analysis relative to solvent-treated control; type: functional
unidentified [16] = assay: Stabilization of HSP90a promoter sequence 5'-FAM-d(GGGCCAAAGGGAAGGGGTGGG)-TAMRA-3' (unknown origin) assessed as melting temperature at 1 uM by FRET assay
MIA PaCa-2 [17] = assay: Inhibition of telomerase activity in human MIAPaCa2 cells assessed as telomere elongation up to 10 uM after 7 days by TRAP-LIG assay; type: cell-based
MIA PaCa-2 [18] = assay: Upregulation of PPM1D gene expression in human MIAPaCa2 cells at cytotoxic concentration after 24 hrs by qPCR analysis; type: functional, cell-based
WI-38 = assay: Cytotoxicity against human WI38 cells assessed as growth inhibition after 96 hrs by SRB assay; type: cell-based; conditions: WI-38, 96 h
MIA PaCa-2 [19] = assay: Downregulation of RAD50 gene expression in human MIAPaCa2 cells at 20 to 160 nM after 24 hrs by qPCR analysis relative to solvent-treated control; type: functional, cell-based
MIA PaCa-2 [20] = assay: Downregulation of BAX gene expression in human MIAPaCa2 cells at 20 to 160 nM after 24 hrs by qPCR analysis relative to solvent-treated control; type: functional, cell-based
MIA PaCa-2 [21] = assay: Induction of ATR/[…] gene expression in human MIAPaCa2 cells by qPCR analysis; type: functional, cell-based
MIA PaCa-2 [22] = assay: Downregulation of POT1 gene expression in human MIAPaCa2 cells at 20 to 80 nM after 24 hrs by qPCR analysis relative to solvent-treated control; type: functional, cell-based
MIA PaCa-2 [23] = assay: Cytotoxicity against human MIAPaCa2 cells assessed as growth inhibition at 5 to 40 nM up to 96 hrs by microscopic analysis; type: functional, cell-based
MIA PaCa-2 [24] = assay: Inhibition of telomerase activity in human MIAPaCa2 cells assessed as telomere elongation at 5 to 7.5 nM after 7 days by TRAP-LIG assay; type: cell-based
MIA PaCa-2 [25] = assay: Upregulation of GADD45A gene expression in human MIAPaCa2 cells at cytotoxic concentration after 24 hrs by qPCR analysis; type: functional, cell-based
MIA PaCa-2 [26] = assay: Upregulation of NTHL1 gene expression in human MIAPaCa2 cells at sublethal concentration after 24 hrs by qPCR analysis; type: functional, cell-based
MIA PaCa-2 [27] = assay: Cytotoxicity against human MIAPaCa2 cells assessed as growth inhibition at 80 nM after 72 hrs by microscopic analysis; type: functional, cell-based
MIA PaCa-2 [28] = assay: Upregulation of UNG gene expression in human MIAPaCa2 cells at sublethal concentration after 24 hrs by qPCR analysis; type: functional, cell-based
MIA PaCa-2 [29] = assay: Upregulation of PRKCB gene expression in human MIAPaCa2 cells at 20 to 80 nM after 24 hrs by qPCR analysis relative to solvent-treated control; type: functional
MIA PaCa-2 [30] = assay: Downregulation of MPG gene expression in human MIAPaCa2 cells at 20 to 160 nM after 24 hrs by qPCR analysis relative to solvent-treated control; type: functional, cell-based
MIA PaCa-2 [31] = assay: Downregulation of HUS1 gene expression in human MIAPaCa2 cells at 20 to 160 nM after 24 hrs by qPCR analysis relative to solvent-treated control; type: functional, cell-based
MIA PaCa-2 [32] = assay: Downregulation of DDIT3 gene expression in human MIAPaCa2 cells at subcytotoxic concentration after 24 hrs by qPCR analysis; type: functional, cell-based
MIA PaCa-2 [33] = assay: Downregulation of PTGES3 gene expression in human MIAPaCa2 cells at 20 to 80 nM after 24 hrs by qPCR analysis relative to solvent-treated control; type: functional, cell-based
MIA PaCa-2 [34] = assay: Cytotoxicity against human MIAPaCa2 cells assessed as growth inhibition after 96 hrs by SRB assay; type: functional, cell-based; conditions: MIA PaCa-2, 96 h
MIA PaCa-2 [35] = assay: Downregulation of PPM1D gene expression in human MIAPaCa2 cells at subcytotoxic concentration after 24 hrs by qPCR analysis; type: functional, cell-based
MIA PaCa-2 [36] = assay: Downregulation of RASSF1 gene expression in human MIAPaCa2 cells at 20 to 80 nM after 24 hrs by qPCR analysis relative to solvent-treated control; type: functional
Homo sapiens = species: Homo sapiens; assay: Stabilization of human telomeric G-quadruplex DNA sequence 5'-FAM-d(GGG[TTAGGG]3)-TAMRA-3' assessed as melting temperature at 1 uM by FRET assay
MIA PaCa-2 [37] = assay: Upregulation of GADD45G gene expression in human MIAPaCa2 cells at cytotoxic concentration after 24 hrs by qPCR analysis; type: functional, cell-based
MIA PaCa-2 [38] = assay: Cytotoxicity against human MIAPaCa2 cells assessed as growth inhibition at 160 nM after 72 hrs by microscopic analysis; type: functional, cell-based

For `CN1CCN(CCCNc2cc3c4c(c(NCCCN5CCN(C)CC5)cc5c4c2C(=O)N(CCCN2CCOCC2)C5=O)C(=O)N(CCCN2CCOCC2)C3=O)CC1`, the Activity (MIA PaCa-2 [1]) was “Active”, the Activity (MIA PaCa-2 [2]) was “inactive” and the Activity (MIA PaCa-2 [3]) was “Active”. For the same compound, the Activity (MIA PaCa-2 [4]) was “inactive”, the “fold change (FC)” value (MIA PaCa-2 [5]) was >2 and the “fold change (FC)” value (MIA PaCa-2 [6]) was >2. The Activity (MIA PaCa-2 [7]) was “Active”, the Activity (MIA PaCa-2 [8]) was “Active” and the Activity (MIA PaCa-2 [9]) was “inactive”. For the same compound, the ΔTm (unidentified [10]) was 4.9 °C, the Activity (MIA PaCa-2 [11]) was “Active” and the Activity (MIA PaCa-2 [12]) was 50%. The “growth inhibition (GI)” value (MIA PaCa-2 [13]) was “inactive”, the Activity (MIA PaCa-2 [14]) was “Active” and the “fold change (FC)” value (MIA PaCa-2 [15]) was >2. For the same compound, the ΔTm (unidentified [16]) was 33.1 °C, the inhibition (MIA PaCa-2 [17]) was “inactive” and the Activity (MIA PaCa-2 [18]) was “Active”. The IC50 (WI-38) was 0.23 µM, the Activity (MIA PaCa-2 [19]) was “Active” and the Activity (MIA PaCa-2 [20]) was “Active”. For the same compound, the Activity (MIA PaCa-2 [21]) was “inactive”, the Activity (MIA PaCa-2 [22]) was “Active” and the “growth inhibition (GI)” value (MIA PaCa-2 [23]) was “Active”. For the same compound, the inhibition (MIA PaCa-2 [24]) was “inactive”, the Activity (MIA PaCa-2 [25]) was “Active” and the Activity (MIA PaCa-2 [26]) was “inactive”. The “growth inhibition (GI)” value (MIA PaCa-2 [27]) was “inactive”, the Activity (MIA PaCa-2 [28]) was “inactive” and the “fold change (FC)” value (MIA PaCa-2 [29]) was >2. For the same compound, the Activity (MIA PaCa-2 [30]) was “Active”, the Activity (MIA PaCa-2 [31]) was “Active” and the Activity (MIA PaCa-2 [32]) was “inactive”. For the same compound, the Activity (MIA PaCa-2 [33]) was “Active”, the IC50 (MIA PaCa-2 [34]) was 0.01 µM and the Activity (MIA PaCa-2 [35]) was “inactive”. For the same compound, the “fold change (FC)” value (MIA PaCa-2 [36]) was >2, the ΔTm (Homo sapiens) was 26.6 °C and the Activity (MIA PaCa-2 [37]) was “Active”. For the same compound, the “growth inhibition (GI)” value (MIA PaCa-2 [38]) was “Active”.
